Data from patent US20240417398A1, “TETRAHYDRONAPTHYRIDINE AND RELATED ANALOGS FOR INHIBITING YAP/TAZ-TEAD” (SpringWorks Therapeutics, Inc., priority 2023, published 2024).

Test system: YAP/TAZ-TEAD transcription
Experiment: Reporter gene assay for measuring the inhibition of YAP/TAZ-TEAD transcription (TEAD-responsive element luciferase reporter, Hek293T cells)
Type: cell-based
Conditions: Homo sapiens, HEK-293T, 24 h, Hek293T cells transfected with TEAD-responsive element luciferase reporter, 24 hours incubation
Experimental: Hek293T cells were cultured in DMEM supplemented with 10% fetal bovine serum, Sodium pyruvate, Sodium bicarbonate, L-glutamine. The cells were harvested and transiently transfected with TEAD-responsive element luciferase reporter. Transfected cells were plated in 384-well plate containing pre-diluted compounds. After 24 hours incubation at 37° C./5% CO2, assay plates were cooled to room temperature and levelled to an equal volume per well, prior to the addition of 25 uL luciferase substrate SteadyLite (Perkin Elmer)/well. The plate was shaken for 10 min at 600 rpm, centrifuged for 1 min at 500 rpm and measured with an Envision reader (PerkinElmer). The amount of relative light units produced by the TEAD reporter was used to calculate the percentage of inhibition.
The percent of reporter inhibition was calculated in the presence of a positive control inhibitor (100% inhibition) versus a condition with the presence of the vehicle basal activity of the reporter (0% inhibition). The ability of a test compound to inhibit this activity was determined as: Percentage inhibition=[1-((RLU determined in the presence of vehicle−RLU determined for sample with test compound present) divided by (RLU determined in the presence of vehicle−RLU determined for sample with positive control inhibitor))]*100.
The activities of example compounds tested are depicted in Table 3. The activity ranges A, B and C refer to IC50 values in the reporter gene assay as follows: “A”: IC50<1 μM; “B”: 1 μM≤IC50 10 μM and “C”: IC50>10 μM; NT=not tested.

IC50 [nM]	SMILES
> 10000	FC(F)(F)c1ccc(N2CC(CNC3COC3)Cc3ncccc32)cc1 (stereo not drawn) [Cpd. No. 25, N-((1-(4-(trifluoromethyl)phenyl)-1,2,3,4-tetrahydro-1,5-naphthyridin-3-yl)methyl)oxetan-3-amine]
> 10000	CC(=O)NCC1Cc2c(cc[nH]c2=O)N(c2ccc(C(F)(F)F)cc2)C1 (stereo not drawn) [Cpd. No. 27, N-((5-oxo-1-(4-(trifluoromethyl)phenyl)-1,2,3,4,5,6-hexahydro-1,6-naphthyridin-3-yl)methyl)acetamide]
> 10000	O=C1CC[C@@H](C(=O)NCC2Cc3ncccc3N(c3ccc(C(F)(F)F)cc3)C2)N1 (stereo partly drawn) [Cpd. No. 28, (2S)-5-oxo-N-((1-(4-(trifluoromethyl)phenyl)-1,2,3,4-tetrahydro-1,5-naphthyridin-3-yl)methyl)pyrrolidine-2-carboxamide]
< 1000	O=C1CC[C@H](C(=O)NCC2Cc3ncccc3N(c3ccc(C(F)(F)F)cc3)C2)N1 (stereo partly drawn) [Cpd. No. 29, (2R)-5-oxo-N-((1-(4-(trifluoromethyl)phenyl)-1,2,3,4-tetrahydro-1,5-naphthyridin-3-yl)methyl)pyrrolidine-2-carboxamide]
> 10000	Cn1cncc1C(=O)NCC1Cc2ncccc2N(c2ccc(C(F)(F)F)cc2)C1 (stereo not drawn) [Cpd. No. 30, 1-methyl-N-((1-(4-(trifluoromethyl)phenyl)-1,2,3,4-tetrahydro-1,5-naphthyridin-3-yl)methyl)-1H-imidazole-5-carboxamide]
> 10000	O=C1CCCN1CC1Cc2ncccc2N(c2ccc(C(F)(F)F)cc2)C1 (stereo not drawn) [Cpd. No. 31, 1-((1-(4-(trifluoromethyl)phenyl)-1,2,3,4-tetrahydro-1,5-naphthyridin-3-yl)methyl)pyrrolidin-2-one]
< 1000	[2H]C([2H])([2H])C(=O)NCC1Cc2ncccc2N(c2ccc(C(F)(F)F)cc2)C1 (stereo not drawn) [Cpd. No. 34, N-((1-(4-(trifluoromethyl)phenyl)-1,2,3,4-tetrahydro-1,5-naphthyridin-3-yl)methyl)acetamide-2,2,2-d3]
1000 to 10000	O=C(Cc1ccccc1)NCC1Cc2ncccc2N(c2ccc(C(F)(F)F)cc2)C1 (stereo not drawn) [Cpd. No. 35, 2-phenyl-N-((1-(4-(trifluoromethyl)phenyl)-1,2,3,4-tetrahydro-1,5-naphthyridin-3-yl)methyl)acetamide]
> 10000	C=CC(=O)N(CC(=O)O)Cc1cc2c(c(-c3ccc(C(F)(F)F)cc3)c1)CNCC2 [Cpd. No. 36, N-acryloyl-N-((8-(4-(trifluoromethyl)phenyl)-1,2,3,4-tetrahydroisoquinolin-6-yl)methyl)glycine]
> 10000	CC(=O)N(CC(=O)O)Cc1cc2c(c(-c3ccc(C(F)(F)F)cc3)c1)CNCC2 [Cpd. No. 37, N-acetyl-N-((8-(4-(trifluoromethyl)phenyl)-1,2,3,4-tetrahydroisoquinolin-6-yl)methyl)glycine]
< 1000	O=C(CC(F)(F)F)NCC1Cc2ncccc2N(c2ccc(C(F)(F)F)cc2)C1 (stereo not drawn) [Cpd. No. 38, 3,3,3-trifluoro-N-((1-(4-(trifluoromethyl)phenyl)-1,2,3,4-tetrahydro-1,5-naphthyridin-3-yl)methyl)propanamide]
< 1000	CC(C)C(=O)NCC1Cc2ncccc2N(c2ccc(C(F)(F)F)cc2)C1 (stereo not drawn) [Cpd. No. 39, N-((1-(4-(trifluoromethyl)phenyl)-1,2,3,4-tetrahydro-1,5-naphthyridin-3-yl)methyl)isobutyramide]
1000 to 10000	O=C(NCC1Cc2ncccc2N(c2ccc(C(F)(F)F)cc2)C1)c1ccccc1 (stereo not drawn) [Cpd. No. 40, N-((1-(4-(trifluoromethyl)phenyl)-1,2,3,4-tetrahydro-1,5-naphthyridin-3-yl)methyl)benzamide]
< 1000	C=CC(=O)N1CCN(C2Cc3ccccc3N(c3ccc(C(F)(F)F)cc3)C2)CC1 (stereo not drawn) [Cpd. No. 41, 1-(4-(1-(4-(trifluoromethyl)phenyl)-1,2,3,4-tetrahydroquinolin-3-yl)piperazin-1-yl)prop-2-en-1-one]
< 1000	CC(=O)NCC1Cc2nc(C(F)(F)F)ccc2N(c2ccc(C(F)(F)F)cc2)C1 (stereo not drawn) [Cpd. No. 42, N-((6-(trifluoromethyl)-1-(4-(trifluoromethyl)phenyl)-1,2,3,4-tetrahydro-1,5-naphthyridin-3-yl)methyl)acetamide]
< 1000	CNC(=O)NCC1Cc2ncccc2N(c2ccc(C(F)(F)F)cc2)C1 (stereo not drawn) [Cpd. No. 43, 1-methyl-3-((1-(4-(trifluoromethyl)phenyl)-1,2,3,4-tetrahydro-1,5-naphthyridin-3-yl)methyl)urea]
< 1000	CC(=O)NCC1Cc2ncc(Br)cc2N(c2ccc(C(F)(F)F)cc2)C1 (stereo not drawn) [Cpd. No. 44, N-((7-bromo-1-(4-(trifluoromethyl)phenyl)-1,2,3,4-tetrahydro-1,5-naphthyridin-3-yl)methyl)acetamide]
< 1000	CC(=O)NCC1Cc2nc(N)ccc2N(c2ccc(C(F)(F)F)cc2)C1 (stereo not drawn) [Cpd. No. 45, N-((6-amino-1-(4-(trifluoromethyl)phenyl)-1,2,3,4-tetrahydro-1,5-naphthyridin-3-yl)methyl)acetamide]
< 1000	CC(=O)NCC1(C)Cc2ncccc2N(c2ccc(C(F)(F)F)cc2)C1 (stereo not drawn) [Cpd. No. 47, N-((3-methyl-1-(4-(trifluoromethyl)phenyl)-1,2,3,4-tetrahydro-1,5-naphthyridin-3-yl)methyl)acetamide]
> 10000	CC(=O)NCC1Cc2c(ccc(=O)n2C)N(c2ccc(C(F)(F)F)cc2)C1 (stereo not drawn) [Cpd. No. 48, N-((5-methyl-6-oxo-1-(4-(trifluoromethyl)phenyl)-1,2,3,4,5,6-hexahydro-1,5-naphthyridin-3-yl)methyl)acetamide]
1000 to 10000	CC(=O)NCC1Cc2ncc(N)cc2N(c2ccc(C(F)(F)F)cc2)C1 (stereo not drawn) [Cpd. No. 49, N-((7-amino-1-(4-(trifluoromethyl)phenyl)-1,2,3,4-tetrahydro-1,5-naphthyridin-3-yl)methyl)acetamide]
< 1000	CC(=O)NCC1Cc2ncc(F)cc2N(c2ccc(C(F)(F)F)cc2)C1 (stereo not drawn) [Cpd. No. 50, N-((7-fluoro-1-(4-(trifluoromethyl)phenyl)-1,2,3,4-tetrahydro-1,5-naphthyridin-3-yl)methyl)acetamide]
< 1000	CC(=O)NCC1Cc2ncc(Cl)cc2N(c2ccc(C(F)(F)F)cc2)C1 (stereo not drawn) [Cpd. No. 51, N-((7-chloro-1-(4-(trifluoromethyl)phenyl)-1,2,3,4-tetrahydro-1,5-naphthyridin-3-yl)methyl)acetamide]
< 1000	CC(=O)NCC1Cc2nc(N(C)C)ccc2N(c2ccc(C(F)(F)F)cc2)C1 (stereo not drawn) [Cpd. No. 52, N-((6-(dimethylamino)-1-(4-(trifluoromethyl)phenyl)-1,2,3,4-tetrahydro-1,5-naphthyridin-3-yl)methyl)acetamide]

SMILES	IC50 [nM]
CC(=O)NCc1cc2c(c(-c3ccc(C(F)(F)F)cc3)c1)CNCC2 [Cpd. No. 32, N-((8-(4-(trifluoromethyl)phenyl)-1,2,3,4-tetrahydroisoquinolin-6-yl)methyl)acetamide]	> 10000
C=CC(=O)NCc1cc2c(c(-c3ccc(C(F)(F)F)cc3)c1)CNCC2 [Cpd. No. 33, N-((8-(4-(trifluoromethyl)phenyl)-1,2,3,4-tetrahydroisoquinolin-6-yl)methyl)acrylamide]	< 1000
CC(=O)NCc1cc2c(c(-c3ccc(C(F)(F)F)cc3)c1)CN(C)CC2 [Cpd. No. 46, N-((2-methyl-8-(4-(trifluoromethyl)phenyl)-1,2,3,4-tetrahydroisoquinolin-6-yl)methyl)acetamide]	> 10000
